“And” between values parts separate entries of the source, which are not always exact repeats. Equal entries are not always repeated.
Columns and labels:
Type in all cases: biochemical, Aloe barbadensis
AbCGT [1] = assay: Effects of pH, temperature and divalent metal ions on AbCGT activity (phloretin 17 + UDP-Glc); settings: for relative activity / conversion rates of Phloretin: in presence of the divalent cation or EDTA; for relative activity: relative to CK; for effect of divalent metal ion on catalytic activity of AbCGT (in words): 5 mM, phloretin (17) + UDP-Glc, 10 min
Experimental: To assay for the optimal reaction temperature, the reaction mixtures were incubated at pH 11.0 and different temperatures (15–60 °C). To test the necessity of divalent metal ions for AbCGT, BaCl2, CaCl2, CoCl2, CuCl2, FeCl2, MgCl2, MnCl2, ZnCl2, and EDTA were used individually at a final concentration of 5 mM. […] For quantification, three parallel assays were routinely carried out.

AbCGT [2] = target: AbCGT (Aloe vera, UniProt A0A7G9P699); assay: Glycosyltransferase activity assay, purified AbCGT (wild type) with aglycon acceptors and UDP-Glc; settings: for conversion rates, O,N,S-glycosylation / conversion rates, di-C-glycosylation / conversion rates, mono-C-glycosylation: aglycon acceptor with UDP-Glc, pH 7.4, 30 °C, up to 12 h, Reaction-1 to -3
Chain of AbCGT (Aloe vera, UniProt A0A7G9P699) (A0A7G9P699 entry or part of it): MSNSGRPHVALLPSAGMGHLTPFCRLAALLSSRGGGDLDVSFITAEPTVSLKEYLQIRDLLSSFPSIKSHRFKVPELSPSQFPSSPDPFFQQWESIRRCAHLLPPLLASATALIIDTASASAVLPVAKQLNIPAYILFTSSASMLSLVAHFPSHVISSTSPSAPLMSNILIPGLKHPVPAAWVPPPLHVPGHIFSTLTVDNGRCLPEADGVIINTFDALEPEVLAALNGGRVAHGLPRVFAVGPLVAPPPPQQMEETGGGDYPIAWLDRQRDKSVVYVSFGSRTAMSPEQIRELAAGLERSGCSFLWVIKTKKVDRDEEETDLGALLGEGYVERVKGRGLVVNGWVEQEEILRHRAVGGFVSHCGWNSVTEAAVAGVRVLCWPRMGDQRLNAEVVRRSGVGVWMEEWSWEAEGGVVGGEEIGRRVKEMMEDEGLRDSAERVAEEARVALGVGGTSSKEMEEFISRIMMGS
Experimental: Due to the instability of some acceptors in the buffer of pH 11.0, the reactions were performed under the physiological conditions (pH 7.4, 30 °C) to compare the catalytic activities of AbGT27 with different substrates under the same conditions. The reactions were performed at 30 °C for up to 12 h and terminated by the addition of 200 μL of ice-cold methanol. Subsequently, samples were centrifuged at 15,000 × g for 30 min to collect the supernatant, and aliquots were analyzed by HPLC-UV/ESIMS. […] The gradient programs were used for the analysis of the reactions (Supplementary Table 6). The conversion rates of the enzyme reactions were calculated from peak areas of glycosylated products and substrates as analyzed by HPLC. To facilitate inferential statistical analysis, three parallel assays were routinely performed; the means ± SD from triplicate analyses are reported here.

AbCGT V183D = target: T1, AbCGT V183D (Aloe vera, UniProt A0A7G9P699, V183D); assay: Glycosyltransferase activity of AbCGT variant V183D
T1 sequence (A0A7G9P699 1-470 V183D): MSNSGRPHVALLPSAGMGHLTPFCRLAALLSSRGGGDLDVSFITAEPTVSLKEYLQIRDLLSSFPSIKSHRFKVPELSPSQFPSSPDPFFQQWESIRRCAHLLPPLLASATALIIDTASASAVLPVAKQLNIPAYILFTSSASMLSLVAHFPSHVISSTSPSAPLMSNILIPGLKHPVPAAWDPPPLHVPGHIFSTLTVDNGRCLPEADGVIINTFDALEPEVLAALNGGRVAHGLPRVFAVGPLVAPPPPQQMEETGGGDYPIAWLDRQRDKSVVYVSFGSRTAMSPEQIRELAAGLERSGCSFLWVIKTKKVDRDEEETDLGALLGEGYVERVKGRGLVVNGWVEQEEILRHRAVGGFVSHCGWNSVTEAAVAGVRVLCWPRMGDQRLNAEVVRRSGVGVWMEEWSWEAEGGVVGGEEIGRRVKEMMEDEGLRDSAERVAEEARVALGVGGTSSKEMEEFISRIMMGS
Experimental: The reaction mixture contained 0.5 mM sugar donors (1.0 mM for di-glycosylation), 0.25 mM aglycons, 50 mM Tris-HCl (pH 7.4), and 50‒100 μg of purified AbCGT in a final volume of 100 μL. Due to the instability of some acceptors in the buffer of pH 11.0, the reactions were performed under the physiological conditions (pH 7.4, 30 °C) to compare the catalytic activities of AbGT27 with different substrates under the same conditions. The reactions were performed at 30 °C for up to 12 h and terminated by the addition of 200 μL of ice-cold methanol. Subsequently, samples were centrifuged at 15,000 × g for 30 min to collect the supernatant, and aliquots were analyzed by HPLC-UV/ESIMS. HPLC analysis was performed on a Shiseido CAPCELL PAK C18 MG III column (250 mm × 4.6 mm I.D., 5 μm, Shiseido Co., Ltd., Japan) at a flow rate of 1 mL min^‒1. The mobile phase was a gradient elution of solvents A (0.1% formic acid aqueous solution) and B (methanol). The gradient programs were used for the analysis of the reactions (Supplementary Table 6). The conversion rates of the enzyme reactions were calculated from peak areas of glycosylated products and substrates as analyzed by HPLC. To facilitate inferential statistical analysis, three parallel assays were routinely performed; the means ± SD from triplicate analyses are reported here.
Site-saturation mutagenesis of AbCGT at residue 183 was performed by PCR using pET28a-AbCGT as a template and the corresponding degenerate primers, which are listed in Supplementary Table 5. PCR products were purified and transformed into Trans1-T1 (DE3) E. coli. The sequences of pET28a-AbCGT mutants were confirmed by sequencing, and transformed into Transetta (DE3) E. coli for heterologous expression following protein purification.

| Compound | relative activity (AbCGT [1]; reaction-1) | relative activity (AbCGT [1]; reaction-2) | relative activity (AbCGT [1]; reaction-3) | conversion rates of Phloretin (AbCGT [1]; reaction-1) | conversion rates of Phloretin (AbCGT [1]; reaction-2) | conversion rates of Phloretin (AbCGT [1]; reaction-3) | conversion rates, O,N,S-glycosylation (AbCGT [2]) | conversion rates, di-C-glycosylation (AbCGT [2]) | conversion rates, mono-C-glycosylation (AbCGT [2]) | also measured |
| --- | --- | --- | --- | --- | --- | --- | --- | --- | --- | --- |
| [Ba+2].[Cl-].[Cl-] [Ba2+] | 119.8 | 122.9 | 119.3 | 62 | 63.6 | 61.7 | – | – | – | – |
| [Ba+2].[Cl-].[Cl-] [Ba^2+] | – | – | – | – | – | – | – | – | – | effect of divalent metal ion on catalytic activity of AbCGT (in words) (AbCGT [1]): greatly enhanced the catalytic activity of AbCGT |
| [Ca+2].[Cl-].[Cl-] [Ca2+] | 149.8 | 161.0 | 139.4 | 77.5 | 83.3 | 72.1 | – | – | – | – |
| [Ca+2].[Cl-].[Cl-] [Ca^2+] | – | – | – | – | – | – | – | – | – | effect of divalent metal ion on catalytic activity of AbCGT (in words) (AbCGT [1]): greatly enhanced the catalytic activity of AbCGT |
| [Co+2] [Co2+] | 36.5 | 41.0 | 43.9 | 18.9 | 21.2 | 22.7 | – | – | – | – |
| CC(=O)c1ccccc1O [Compound 1] | – | – | – | – | – | – | 30.2% and 31% and 32.1% | 0% | 0% | WT/yield of C-glycoside(%) (AbCGT [2]; reaction-1): 0%; WT/yield of O-glycoside(%) (AbCGT [2]; reaction-1): 32.8%; WT/yield of C-glycoside(%) (AbCGT [2]; reaction-2): 0%; WT/yield of O-glycoside(%) (AbCGT [2]; reaction-2): 33.5%; WT/yield of C-glycoside(%) (AbCGT [2]; reaction-3): 0%; WT/yield of O-glycoside(%) (AbCGT [2]; reaction-3): 28.2%; V183D/yield of C-glycoside(%) (AbCGT V183D; reaction-1): 0%; V183D/yield of O-glycoside(%) (AbCGT V183D; reaction-1): 0%; V183D/yield of C-glycoside(%) (AbCGT V183D; reaction-2): 0%; V183D/yield of O-glycoside(%) (AbCGT V183D; reaction-2): 0%; V183D/yield of C-glycoside(%) (AbCGT V183D; reaction-3): 0%; V183D/yield of O-glycoside(%) (AbCGT V183D; reaction-3): 0% |
| Cc1cc(O)cc(O)c1C=O [Compound 8] | – | – | – | – | – | – | 0% | 0% | 86.7% and 87.5% and 90.2% | – |
| CC(=O)c1c(C)cc(O)cc1O [Compound 9] | – | – | – | – | – | – | 0% | 0% | 45.2% and 41.8% and 43% | – |
| O=Cc1c(O)cc(O)cc1O [Compound 10] | – | – | – | – | – | – | 0% | 100% | 0% | – |
| CC(=O)c1c(O)cc(O)c(C(C)=O)c1O [Compound 12] | – | – | – | – | – | – | 0% | 0% | 100% | – |
| COc1cc(OC)c(C(C)=O)c(OC)c1 [Compound 15] | – | – | – | – | – | – | 0% | 0% | 0% | – |
| CCCCC(=O)c1c(O)cc(O)cc1O [Compound 16] | – | – | – | – | – | – | 0% | 100% | 0% | – |
| O=C(OCCCc1ccccc1)c1c(O)cc(O)cc1O [Compound 18] | – | – | – | – | – | – | 0% | 93.8% and 92% and 91.6% | 3.2% and 4.7% and 4% | – |
| O=C(c1ccc(O)c(O)c1)c1c(O)cc(O)cc1O [Compound 19] | – | – | – | – | – | – | 0% | 63% and 63.5% and 65.1% | 37% and 36.5% and 34.9% | – |
| Cc1cc(=O)oc2cc(O)ccc12 [Compound 24, 7-hydroxy-4-methylcoumarin] | – | – | – | – | – | – | 90% and 92% and 94.8% | 0% | 0% | – |
| Cc1cc(=O)oc2cc(S)ccc12 [Compound 25, 7-mercapto-4-methylcoumarin] | – | – | – | – | – | – | 87% and 86% and 85.3% | 0% | 0% | – |
| [Cu+2] [Cu2+] | 0.0 | 0.0 | 0.0 | 0 | 0 | 0 | – | – | – | – |
| O=C(O)CN(CCN(CC(=O)O)CC(=O)O)CC(=O)O [EDTA] | 89.5 | 90.9 | 102.3 | 46.3 | 47 | 52.9 | – | – | – | – |
| [Fe+2] [Fe2+] | 23.0 | 24.7 | 18.0 | 11.9 | 12.8 | 9.3 | – | – | – | – |
| [Cl-].[Cl-].[Mg+2] [Mg2+] | 157.2 | 160.4 | 167.6 | 81.3 | 83 | 86.7 | – | – | – | – |
| [Cl-].[Cl-].[Mg+2] [Mg^2+] | – | – | – | – | – | – | – | – | – | effect of divalent metal ion on catalytic activity of AbCGT (in words) (AbCGT [1]): greatly enhanced the catalytic activity of AbCGT |
| [Cl][Mn][Cl] [Mn2+] | 162.4 | 178.6 | 171.3 | 84 | 92.4 | 88.6 | – | – | – | – |
| [Cl][Mn][Cl] [Mn^2+] | – | – | – | – | – | – | – | – | – | effect of divalent metal ion on catalytic activity of AbCGT (in words) (AbCGT [1]): greatly enhanced the catalytic activity of AbCGT |
| [Ni+2] [Ni2+] | 13.7 | 12.0 | 15.5 | 7.1 | 6.2 | 8 | – | – | – | – |
| [Zn+2] [Zn2+] | 1.9 | 3.9 | 1.9 | 1 | 2 | 1 | – | – | – | – |

Source: article PMC7558026, “Exploring and applying the substrate promiscuity of a C-glycosyltransferase in the chemo-enzymatic synthesis of bioactive C-glycosides” (Nature Communications, 2020)
